# Laboratory results taken from patent US20250026789A1, “PEPTIDE HAVING INHIBITORY ACTIVITY AGAINST AMYLOID PRECURSOR PROTEIN AND USE THEREOF” ([…]., priority 2021, published 2025).
# “Also recorded” adds a separate entry of the source.
# Experiments:
# Assay type in all cases: cell-based, human
# [1] = tested on: IDE (insulin degrading enzyme); experiment: IDE expression by real-time qPCR in SH-SY5Y cells; conditions: peptide 0.01, 0.1, or 1 mM, 24 hours, vs control group without peptide
# Experimental: IDE is an enzyme that degrades senile plaques produced and aggregated by beta-amyloid (Ab1-42, 1-40). Therefore, the increased expression of IDE may be used as an indicator of a therapeutic effect of a neurodegenerative disease. Specifically, the prepared peptides were added to SH-SY5Y, a human neural cell line, at a concentration of 0.01, 0.1, or 1 mM, and the cells were cultured at 37° C. and 5% CO2 for 24 hours. Afterward, total RNA was extracted from the culture, cDNA was synthesized, and real-time qPCR was performed using the IDE primers in Table 5 below to measure the expression level of IDE. Meanwhile, a group to which no peptide was added was used as a control group.
# [2] = tested on: SH-SY5Y; experiment: Neurite growth in SH-SY5Y cells (microscope, length); conditions: peptide 0.01, 0.1, or 1 mM, 24 hours
# Experimental: In the present example, to confirm the regeneration of neurons by treatment with the peptides, the growth of neurites was confirmed. Specifically, the prepared peptides were added to SH-SY5Y, a human neural cell line, at a concentration of 0.01, 0.1, or 1 mM, and the cells were cultured for 24 hours. Afterward, the grown neurites were confirmed through a microscope, and their length was measured and evaluated.
# [3] = tested on: amyloid precursor protein (APP); experiment: APP expression by real-time qPCR in SH-SY5Y cells; conditions: peptide 0.001, 0.01, 0.1, or 1 mM, 24 hours, vs control group without peptide
# Experimental: (§1) In the present example, the effect of inhibiting the expression of APP by peptide treatment was confirmed. To this end, the prepared peptides were added at a concentration of 0.001, 0.01, 0.1, or 1 mM to SH-SY5Y, which is a human neural cell line obtained by isolating cells from the bone marrow of a human having neuroblastoma and proliferating them, and then the cells were cultured for 24 hours. Afterward, total RNA was extracted from the culture, cDNA was synthesized, and real-time quantitative polymerase chain reaction (qPCR) was performed using the APP primers shown in Table 2 below to measure the expression level of amyloid precursor protein (APP). Meanwhile, a group to which no peptide was added was used as a control group, and a group to which a random peptide was added (NRP1: AFMVDNEAIYDICR (SEQ ID NO: 9)) was used as a comparative group.
# as §1, with “of amyloid precursor protein” for “of APP”, “real-time qPCR” for “real-time quantitative polymerase chain reaction (qPCR)”, “2 above” for “2 below”, “of APP.” for “of amyloid precursor protein (APP).”
# [4] = tested on: ADAM 17; experiment: ADAM 17 expression by real-time qPCR in SH-SY5Y cells; conditions: peptide 0.001, 0.01, 0.1, or 1 mM, 24 hours, vs control group without peptide
# Experimental: (§2) ADAM 17 is an enzyme that removes APP from the cell membrane surface by cleaving it into a non-toxic fragment, sAPPa. Therefore, the increased expression of ADAM 17 may be used as an indicator of a therapeutic effect on a neurodegenerative disease. Specifically, the prepared peptides were added to SH-SY5Y, a neural cell line, at a concentration of 0.001, 0.01, 0.1, or 1 mM, and cultured at 37° C. and 5% CO2 for 24 hours. Afterward, total RNA was extracted from the culture, cDNA was synthesized, and real-time qPCR was performed using the ADAM 17 primers shown in Table 4 below to measure the expression level of […]. In addition, the prepared peptides were added to SH-SY5Y, a human neural cell line, at a concentration of 0.001, 0.01, 0.1, or 1mM, and cultured at 37° C. and 5% CO2 for 24 hours. Afterward, the expression of ADAM 17 protein from the culture and the expression of sAPPa, which was cleaved from APP by ADAM 17 and ADAM 10 and released, were confirmed through Western blotting using antibodies against each protein. In addition, the distribution of APP on the surface of a nerve cell membrane was analyzed using flow cytometric analysis. Meanwhile, a group to which no peptide was added was used as a control group.
# The prepared peptides were added to SH-SY5Y, a neural cell line, at a concentration of 0.001, 0.01, 0.1, or 1 mM, and the cells were cultured at 37° C. and 5% CO2 for 24 hours. Afterward, total RNA was extracted from the culture, cDNA was synthesized, and real-time qPCR was performed using the ADAM 17 primers in Table 4 above to measure the expression level of ADAM 17. Meanwhile, a group to which no peptide was added was used as a control group.
# [5] = tested on: ADAM 17 protein; experiment: ADAM 17 protein expression by Western blotting in SH-SY5Y cells; conditions: peptide 0.001, 0.01, 0.1, or 1 mM, 24 hours, vs control group without peptide
# Experimental: as §2
# [6] = tested on: sAPPa; experiment: sAPPa expression by Western blotting in SH-SY5Y cells; conditions: peptide 0.001, 0.01, 0.1, or 1 mM, 24 hours, vs control group without peptide
# Experimental: as §2
# [7] = tested on: IL-10; experiment: IL-10 expression by real-time qPCR in SH-SY5Y cells; conditions: peptide 0.001, 0.01, 0.1, or 1 mM, 24 hours, vs control group without peptide
# Experimental: In the present example, to confirm the effect inhibiting a neuroinflammatory response by peptide treatment, which is one of the main causes of a neurodegenerative disease, the effect of increasing the expression of IL-10, one of the anti-inflammatory cytokines, was confirmed. Specifically, the prepared peptides were added to SH-SY5Y, a human neural cell line, at a concentration of 0.001, 0.01, 0.1, or 1 mM, and the cells were cultured at 37° C. and 5% CO2 for 24 hours. Afterward, total RNA was extracted from the culture, cDNA was synthesized, and real-time qPCR was performed using the IL-10 primers in Table 6 below to measure the expression level of IL-10. Meanwhile, a group to which no peptide was added was used as a control group.
# In the present example to confirm the effect of inhibiting a neuroinflammatory response, which is one of the main causes of a neurodegenerative disease, by peptide treatment, the effect of increasing the expression of IL-10, one of the anti-inflammatory cytokines, was attempted. Specifically, the prepared peptide was added to SH-SY5Y, a human neural cell line, at a concentration of 0.001, 0.01, 0.1, or 1 mM, and the cells were cultured at 37° C. and 5% CO2 for 24 hours. Afterward, total RNA was extracted from the culture, cDNA was synthesized, and real-time qPCR was performed using the IL-10 primers in Table 6 above to measure the expression level of IL-10. Meanwhile, a group to which no peptide was added was used as a control group.
# [8] = tested on: ADAM 10; experiment: ADAM 10 expression by real-time qPCR in SH-SY5Y cells; conditions: peptide 0.001, 0.01, 0.1, or 1 mM, 24 hours, vs control group without peptide
# Experimental: ADAM 10 is an alpha-secretase that cleaves APP into a non-toxic fragment and inhibits the production of beta-amyloid (β-amyloid, Ab1-42, 1-40). Therefore, the increased expression of ADAM 10 may be used as an indicator of a therapeutic effect on a neurodegenerative disease. Specifically, the prepared peptides were added to SH-SY5Y, a human neural cell line, at a concentration of 0.001, 0.01, 0.1, or 1 mM, and the cells were cultured at 37° C. and 5% CO2 for 24 hours. Afterwards, total RNA was extracted from the culture, cDNA was synthesized, and real-time qPCR was performed using the ADAM 10 primers shown in Table 3 below to measure the expression level of ADAM 10. Meanwhile, a group to which no peptide was added was used as a control group.
# [9] = tested on: Brain Derived Neurotrophic Factor (BDNF); experiment: BDNF expression by real-time qPCR in SH-SY5Y cells; conditions: peptide 0.001, 0.01, 0.1, or 1 mM, 24 hours, vs control group without peptide
# Experimental: In the present example, to confirm the effect of improving or treating a degenerative neurological disease through the regeneration of the nervous system by peptide treatment, the effect of increasing the expression of Brain Derived Neurotrophic Factor (BDNF) was examined. Specifically, the prepared peptides were added to SH-SY5Y, a human neural cell line, at a concentration of 0.001, 0.01, 0.1, or 1 mM, and the cells were cultured at 37° C. and 5% CO2 for 24 hours. Afterward, total RNA was extracted from the culture, cDNA was synthesized, and real-time qPCR was performed using the BDNF primers shown in Table 8 below to measure the expression level of BDNF. Meanwhile, a group to which no peptide was added was used as a control group.
Sequence,expression of IDE [1],length of the neurites [2],expression of APP [3],"expression of ADAM 17 (gene, qPCR) [4]",expression of ADAM 17 protein (Western blotting) [5],expression of sAPPa (Western blotting) [6],expression of IL-10 [7],expression of ADAM 10 [8],expression of BDNF [9]
IKLLSIVAWAKKKI [Peptide-2],increased,increased,,,,,,,
LKLKALAALIKKIL [Peptide-1],increased,increased,inhibited,increased,increased,increased,increased,,
KALAALAKK [Peptide-8],increased,,inhibited,,,,,increased,
INLKALAAKIKIL [Peptide-3],increased,,,,,,increased,increased,
INLLKSEGKIIKSL [Peptide-10],,,,increased,,,,,increased
GRPPGFSLAR [Peptide-11],,,inhibited,increased,,,increased,,increased; also recorded: more significant
INIKVLIAKKIL [Peptide-4],increased,,inhibited,increased,increased,increased,increased,increased,
LNLRGLAKKKL [Peptide-6],increased,increased,,,,,,,
LNIRGLGAKKKI [Peptide-5],increased,,inhibited,,,,increased,increased,
KALAALAKKIL [Peptide-7],increased,,inhibited,,increased,increased,increased,increased,
GRILGFSPFR [Peptide-12],,,inhibited,increased,,,increased,,increased; also recorded: more significant
INLLKIAGKIINIL [Peptide-9],,,,increased,,,increased; also recorded: more significant,,increased
